Experimental data from the supplement of paper PMC13380429.

How the values were obtained:
Conditions in all cases: 72 h
HepG2 [1] = experiment: cell viability relative to DMSO; higher = less toxic
Vero E6 [2] = experiment: as above
Caco-2 [3] = experiment: as above
Calu-3 [4] = experiment: as above
U2OS [5] = experiment: as above
HepG2 [6] = experiment: relative viability EC50 (midpoint between 100% and the lowest measured viability); higher = less toxic
Vero E6 [7] = experiment: as above
Caco-2 [8] = experiment: as above
Calu-3 [9] = experiment: as above
U2OS [10] = experiment: as above
HepG2 [11] = experiment: drug sensitivity score (DSS) for viability; higher = more toxic; extreme values may be limits of the assay
Vero E6 [12] = experiment: as above
Caco-2 [13] = experiment: as above
Calu-3 [14] = experiment: as above
U2OS [15] = experiment: as above

SMILES | cell viability (HepG2 [1]; 1 nM) | cell viability (HepG2 [1]; 10 nM) | cell viability (HepG2 [1]; 100 nM) | cell viability (HepG2 [1]; 1000 nM) | cell viability (HepG2 [1]; 10000 nM) | cell viability (Vero E6 [2]; 1 nM) | cell viability (Vero E6 [2]; 10 nM) | cell viability (Vero E6 [2]; 100 nM) | cell viability (Vero E6 [2]; 1000 nM) | cell viability (Vero E6 [2]; 10000 nM) | cell viability (Caco-2 [3]; 1 nM) | cell viability (Caco-2 [3]; 10 nM) | cell viability (Caco-2 [3]; 100 nM) | cell viability (Caco-2 [3]; 1000 nM) | cell viability (Caco-2 [3]; 10000 nM) | cell viability (Calu-3 [4]; 1 nM) | cell viability (Calu-3 [4]; 10 nM) | cell viability (Calu-3 [4]; 100 nM) | cell viability (Calu-3 [4]; 1000 nM) | cell viability (Calu-3 [4]; 10000 nM) | cell viability (U2OS [5]; 1 nM) | cell viability (U2OS [5]; 10 nM) | cell viability (U2OS [5]; 100 nM) | cell viability (U2OS [5]; 1000 nM) | cell viability (U2OS [5]; 10000 nM) | relative viability EC50 (HepG2 [6]) | relative viability EC50 (Vero E6 [7]) | relative viability EC50 (Caco-2 [8]) | relative viability EC50 (Calu-3 [9]) | relative viability EC50 (U2OS [10]) | drug sensitivity score (HepG2 [11]) | drug sensitivity score (Vero E6 [12]) | drug sensitivity score (Caco-2 [13]) | drug sensitivity score (Calu-3 [14]) | drug sensitivity score (U2OS [15])
COc1cc2c(Oc3ccc(NC(=O)C4(C(=O)Nc5ccc(F)cc5)CC4)cc3F)ccnc2cc1OCCCN1CCOCC1 [foretinib] | 94.7% | 95.7% | 101% | 47.8% | 0.1% | 102% | 97.9% | 102% | 74.3% | 0.2% | 102% | 98.6% | 97.2% | 70.3% | 5.3% | 99.7% | 98.6% | 96.9% | 84.7% | 5.1% | 103% | 99.1% | 94.2% | 75.1% | 0% | 0.965 µM | 1.52 µM | 1.37 µM | 1.92 µM | 1.55 µM | 11.9 | 9.4 | 9.5 | 7.8 | 9.3
COc1ccccc1OCC(O)CO (stereo not given) [guaifenesin] | 100% | 99.8% | 98.7% | 103% | 94.7% | 105% | 106% | 105% | 105% | 99.5% | 102% | 84.5% | 101% | 91.2% | 99.5% | 99.2% | 105% | 101% | 108% | 95.2% | 105% | 98.8% | 97% | 97.2% | 100% | > 10 µM | > 10 µM | > 10 µM | > 10 µM | > 10 µM | 0 | 0 | 0 | 0 | 0
Nc1nc2c(ncn2[C@@H]2O[C@H](CO)[C@@H](O)[C@H]2O)c(=O)[nH]1 [guanosine] | 102% | 95.8% | 105% | 100% | 102% | 92.6% | 93.5% | 92.4% | 89.7% | 102% | 85.6% | 102% | 97.8% | 99.9% | 105% | 96% | 102% | 100% | 97% | 101% | 96.9% | 102% | 98.2% | 100% | 102% | > 10 µM | > 10 µM | > 10 µM | > 10 µM | > 10 µM | 0 | 0 | 0 | 0 | 0
C=CC(=O)N1CCC[C@@H](n2nc(-c3ccc(Oc4ccccc4)cc3)c3c(N)ncnc32)C1 [ibrutinib] | 97% | 99.1% | 104% | 97.2% | 95.3% | 99.4% | 95.5% | 101% | 98.7% | 92.1% | 103% | 97.3% | 101% | 96.8% | 101% | 100% | 92% | 94.5% | 98.3% | 103% | 101% | 100% | 98.6% | 97.6% | 100% | > 10 µM | > 10 µM | > 10 µM | > 10 µM | > 10 µM | 0 | 0 | 0 | 0 | 0
COc1cc(C(C)=O)ccc1OCCCN1CCC(c2noc3cc(F)ccc23)CC1 [iloperidone] | 91.9% | 91.3% | 94.4% | 94.2% | 88.6% | 101% | 96.7% | 94.7% | 98% | 95.6% | 90.7% | 98.5% | 84.8% | 94.9% | 82% | 93% | 96.7% | 104% | 104% | 80.5% | 97.9% | 97.5% | 96.6% | 99.6% | 91% | > 10 µM | > 10 µM | > 10 µM | > 10 µM | > 10 µM | 0 | 0 | 0.8 | 0.4 | 0
NCCCCCc1c[nH]cn1 [impentamine] | 96.6% | 93.9% | 103% | 97.5% | 101% | 96.6% | 99.3% | 99.9% | 93.5% | 96.9% | 98% | 97.9% | 91.6% | 97% | 91.3% | 98.3% | 99.4% | 100% | 98.5% | 91.9% | 95.7% | 102% | 96.6% | 98.3% | 95.4% | > 10 µM | > 10 µM | > 10 µM | > 10 µM | > 10 µM | 0 | 0 | 0 | 0 | 0
